Legend:
Format in all cases: cell-based
[1] = system: IL-1β-stimulated PGE2 synthesis in bovine chondrocyte pellets / ARC tissues; assay: Chondrocyte pellet / ARC culture model: Prostaglandin E2 assay; conditions: Table 3B
Excerpt: (§1) Calf articular cartilage was obtained from the knee joints of eight to twelve month old animals and was processed within twenty-four hours after sacrifice. After removal of muscle and ligament, the cartilage was kept moist using phosphate buffer solution (PBS) to prevent tissue dehydration, and was aseptically peeled off from subchondral bone with a scalpel, and the cartilage pieces were further minced into smaller pieces (˜0.3-0.5×˜0.2-0.5 cm cubes). […] Chondrocytes were then enzymatically isolated from the tissue by incubation for overnight at 37° C. with gentle agitation in 0.2% collagenase in Dulbecco's modified eagle media (DMEM). After removal of tissue debris by filtration through cell strainer and the residual collagenase by 3× wash in PBS, cells were finally resuspended at a density of 2.5×10^6 cells/ml in chondrocyte medium. A 1 ml aliquot of the cell suspension was dispensed into either a 15 ml Falcon centrifuge tube or a 96 deep-well plate and centrifuged at 2000×g for five minutes. The chondrocyte pellets were incubated at 37° C. in a humidified atmosphere of 5% CO2 for two to three weeks with a medium change every other day.
(§2) As an alternative to using calf articular cartilage, a commercial Aliginate Recovered Chondrocytes (ARC) system was also used (Articular Engineering, LLC (Northbrook, Ill.)). Use of the commercial system cut down on labor and time in producing chondrocyte pellet. This system produced cartilaginous tissue in vitro using bovine chondrocytes. The first step consisted of culturing chondrocytes in alginate under conditions optimal for the formation of a cell-associated matrix (CM). The second step allowed these cells with their CM, after recovery, to rapidly form and become integrated into a solid mass of cartilage on a porous insert within two weeks.
(§3) Chondrocyte pellets were washed once with 1 ml of Chondrocyte Stimulation Medium and equilibrated in the same medium at room temperature for fifteen to thirty minutes. Compounds were dissolved in H2O, Ethanol or dimethyl sulfoxide (DMSO) (10^−2 M) according to suppliers' instructions and further diluted with Chondrocyte Stimulation Medium to the required concentrations. DMSO concentrations in the culture media should not exceed 1%; this concentration of DMSO has no effect on cartilage proteoglycan metabolism in response to cytokines.
(§4) The pellets were first treated with compounds at desired concentrations at 37° C. for one hour and then incubated for three to five days in the absence or presence of 10 ng/ml of IL-1β. At the end of the incubation, media and pellets were harvested and frozen for further analysis. Pellets were also fixed as needed in 4% (w/v) paraformaldehyde in PBS for histology analysis.
Prostaglandin E2 (PGE2) was measured with a STAT-Prostaglandin E2 EIA ELISA kit (Cayman Biochemicals). This assay is based on the competition between PGE2 from 50 μl samples and a PGE2-alkaline phosphatase conjugate for a limited amount of PGE2 monoclonal antibody in a reaction volume of 150 μl at room temperature for one hour. The antibody-PGE2 complex bound to a goat polyclonal anti-mouse IgG that had been previously attached to the well. After washing to remove any unbound reagents, para-nitrophenyl phosphate (pNPP) was added to the well. The product of this enzymatic reaction absorbs strongly at 412 nm. Because of the large range in response to IL-1β and other cytokines, PGE2 values were converted to log scale prior to doing t-tests.
To characterize the relative efficacies among different p38 MAP kinase inhibitors, dose-response curves were generated for both PGE2 and NO assays. […] After one hour of treatment, ARCs were stimulated with or without 7.5 ng/ml IL-1β and continued to incubate for five days before assay. The IL-1β-stimulated PGE2 synthesis or NO production was first calculated by subtraction of PGE2/NO levels in the absence of IL-1β from that in the presence of IL-1β. […]

[2] = system: IL-1β-stimulated NO production in bovine chondrocyte pellets / ARC tissues; assay: Chondrocyte pellet / ARC culture model: total nitrite and nitrate assay; conditions: Table 3B
Excerpt: as §1, §2, §3, §4
Nitrate/Nitrite levels were measured using the Griess reaction (Green L. C. et al., “Analysis of Nitrate, Nitrite, and [15N]nitrate in Biological Fluids,” Anal. Biochem. 126: 131-138 (1982)) with a Nitrate/Nitrite Colorimetric Assay Kit (Cayman Chemicals), the contents of which are incorporated herein by reference. The assay involved a simple two-step process. The first step involved conversion of nitrate in 50 μl of culture medium to nitrite utilizing nitrate reductase in a reaction volume of 100 μl at room temperature for two hours. The second step involved the addition of 50 μl of both Griess Reagent 1 and 2, which converted nitrite into a deep purple azo compound in ten minutes. Photometric measurement of the absorbance at 540 or 550 nm due to this azo chromophore accurately determined nitrite concentration. This assay kit cannot be used for RPMI (Roswell Park Memorial Institute) derived tissue culture medium due to interference with the colorimetric reaction.
To characterize the relative efficacies among different p38 MAP kinase inhibitors, dose-response curves were generated for both PGE2 and NO assays. […] After one hour of treatment, ARCs were stimulated with or without 7.5 ng/ml IL-1β and continued to incubate for five days before assay. […]

[3] = system: bovine chondrocyte pellets / ARC tissues stimulated with IL-1β; assay: Chondrocyte pellet / ARC culture model: GAG degradation assay; conditions: Table 3B
Excerpt: A chondrocyte pellet culture model was developed for in vitro high throughput screening of therapeutic compounds for inhibition of IL-1β-stimulated matrix degradation. The chondrocyte pellet culture model can be used to detect various potential therapeutic compounds effective in blocking different processes caused by IL-1β stimulation. For example, IL-1β stimulation results in increased glycosaminoglycan (GAG) degradation, prostaglandin E2 (PGE2) synthesis and total nitrite/nitrate production. Compounds with different mechanisms of action may inhibit the increase of one or two or all three of these parameters. For this reason, screening by, for example, measuring only GAG release would be limited to detection of a specific class of inhibitors and may not detect compounds with diversified mechanisms of function which may be involved in inhibition of the IL-1 stimulated inflammatory process. The development of the chondrocyte pellet culture assay system in a 96-well plate made possible large-scale screening of potential therapeutic compounds with different mechanisms of action.
as §1, §2
This tissue is rich in cells surrounded by a cell-associated matrix that is degraded rapidly when the cells are exposed to IL-1. ARC tissues in 3 mm punches at delivery were first dispensed into a 96 deep-well plate, one punch per well, for compound treatment. The subsequent procedures were the same as those used for the chondrocyte pellets.
as §3
The pellets were first treated with compounds at desired concentrations at 37° C. for one hour and then incubated for three to five days in the absence or presence of 10 ng/ml of IL-1β. […]

[4] = system: NO production in injured bovine cartilage explants; assay: Drop tower model: NO production in injured cartilage explants; conditions: Bos taurus; at 10 μM; injured cartilage explants
Experimental: (§5) In the second method, the explants were cultured at 37° C., 5% CO2 either in stimulated or non-stimulated conditioned medium as described above or in defined medium containing DMEM supplemented with 1% FCS, 1× insulin-transferrin-sodium selenite media supplement and Antibiotics-Antimycotics in the presence or absence of a cocktail of cytokines containing 10 ng/ml of IL-1β, 100 ng/ml of TNFα and 5 ng/ml of IFN-γ. The compounds were solubilized in H2O, Ethanol or DMSO (10^−2 M) according to suppliers' instructions and further diluted with either conditioned medium stimulated with or without LPS to the required concentrations. DMSO concentrations in the culture media never exceeded 1%. This concentration of DMSO has no effect on cartilage proteoglycan metabolism in response to cytokines. The injured and noninjured cartilage explants were treated with compound-containing medium for three to five days. The specimens were first treated with compounds at desired concentrations at 37° C. for one hour and then incubated for three to five days in the absence or presence of the cocktail of cytokines. At the end of the incubation, media and cartilage samples were harvested and frozen for further analysis.
Nitrate/Nitrite was measured using the Griess reaction (Green L. C. et al., “Analysis of Nitrate, Nitrite, and [15N]nitrate in Biological Fluids,” Anal. Biochem. 126: 131-138 (1982)) with a Nitrate/Nitrite Colorimetric Assay Kit (Cayman Chemicals), as described in Example III above.

[5] = system: injured bovine articular cartilage explants in inflammatory medium; assay: Drop tower model: GAG degradation in injured cartilage explants; conditions: for inhibition at 10 µM: Bos taurus, injured cartilage explants
Excerpt: In order to assess cartilage breakdown by inflammatory mediators and the effect of antagonists on those mediators, a cartilage impact model (the “drop tower model”) was established using a drop tower device to apply a peak compressive stress to a cartilage sample of about 20-30 MPa over an area of about 11-15 mm^2. Advantages of this model included its clinical relevance due to its potential to mimic several key parameters of osteoarthritis such as inflammatory cell mediators (by co-culturing with inflammatory cells), and induction of trauma to create the cartilage damage.
In the “drop tower design model” cartilage explants were first injured and then cultured in inflammatory medium to mimic the progression of joint impact trauma linked to cartilage degeneration and osteoarthritis. The approach of the model is to artificially produce cellular damage without gross structural alterations, and to determine how the cells respond to such an insult over the ensuing days when treated with or without potential therapeutic agents.
The device comprises a vertical rail that guides a sliding weight from 0.1 kg to 3 kg directly onto a force transducer which is situated at the bottom of the device. A sphere-shaped 2 mm indenter resting on a specimen is located at the bottom of the vertical rail. The indenter is held by a stop screw. The specimen is rigidly attached to a tissue holder underneath the indenter, to avoid side movements, the specimen is rigidly attached to the tissue holder. In this manner, the force transducer transduces a force indirectly onto the specimen. Adjusting the weight of a mass and height from which the mass drops varies the magnitude of the intended impact. For example, a weight mass (e.g., […]) held by a weight holder can be released from a height of e.g., 36 cm and dropped onto the force transducer.
Samples for compound evaluation were tested using either of two different methods to induce inflammatory conditions. One method utilized media conditioned from peripheral blood mononuclear cells (PBMCs) stimulated with LPS (“+LPS”) or non-inflammatory media without LPS (“−LPS”). Another method utilized the absence or presence of a cocktail of cytokines.
In the first method, bovine or human PBMCs were freshly prepared using Ficoll gradient by Lampire Biological Laboratories, Inc. PBMCs in RPMI w/10% FCS at delivery were spun down at 1500 rpm for twenty minutes and the cell pellet was washed twice with 1×PBS to wash off the residual Ficoll. The cells were then resuspended at a density of 1×10^6/ml in RPMI supplemented with 10% FCS, 1× Antibiotics-Antimycotics. The suspension was divided into two aliquots. One aliquot was stimulated with 10 μg/ml of LPS and the other was not stimulated. Both aliquots were then incubated at 37° C., 5% CO2 for twenty-four to seventy-two hours. The conditioned media with or without LPS stimulation are collected, aliquoted, and stored in −80° C. for a maximum of three months. Each conditioned medium was assessed for levels of pro-inflammatory cytokines to ensure their secretion from PBMC. A representative cytokine, IL-6, was assayed by ELISA using a Human IL-6 Quantikine kit and it was shown that the LPS-stimulated medium had at least 10 ng/ml of IL-6, while IL-6 was undetectable in the unstimulated medium.
In the second method, the explants were cultured at 37° C., 5% CO2 either in stimulated or non-stimulated conditioned medium as described above or in defined medium containing DMEM supplemented with 1% FCS, 1× insulin-transferrin-sodium selenite media supplement and Antibiotics-Antimycotics in the presence or absence of a cocktail of cytokines containing 10 ng/ml of IL-1β, 100 ng/ml of TNFα and 5 ng/ml of IFN-γ. The compounds were solubilized in H2O, Ethanol or DMSO (10^−2 M) according to suppliers' instructions and further diluted with either conditioned medium stimulated with or without LPS to the required concentrations. DMSO concentrations in the culture media never exceeded 1%. […]

[6] = system: PGE2 synthesis in injured bovine cartilage explants; assay: Drop tower model: PGE2 synthesis in injured cartilage explants
Experimental: as §5
PGE2 was measured with STAT-Prostaglandin E2 EIA ELISA kit (Cayman Biochemicals), as described in Example III above. The antibody-PGE2 complex binds to a goat polyclonal anti-mouse IgG that has been previously attached to the well. After washing to remove any unbound reagents, para-nitrophenyl phosphate (pNPP) was added to the well. The product of this enzymatic reaction absorbs strongly at 412 nm. Because of the large range in response to IL-1β and other cytokines, PGE2 values were converted to log scale prior to doing t-tests.

Row | Structure (SMILES) | PGE2 Inhibition, Pellet Assay (in words) [1] | NO Inhibition, Pellet Assay (in words) [2] | GAG Release, Pellet Assay (in words) [3] | inhibition at 10 µM [4] [%] | inhibition at 10 µM [5] [%] | PGE2 synthesis (in words) ([6]; 10 μM, cocktail of cytokines (IL-1β, TNF-α, INF-γ), five days) | Inhibition of PGE2 synthesis (in words) ([6]; Table 4) | Inhibition of GAG degradation (in words) ([5]; Table 4, injured cartilage explants, inflammatory conditions)
1 | C[C@H]1[C@H](C)CC[C@]2(C(=O)O[C@@H]3O[C@H](CO[C@@H]4O[C@H](CO)[C@@H](O[C@@H]5O[C@@H](C)[C@H](O)[C@@H](O)[C@H]5O)[C@H](O)[C@H]4O)[C@@H](O)[C@H](O)[C@H]3O)CC[C@]3(C)C(=CC[C@@H]4[C@@]5(C)C[C@@H](O)[C@H](O)[C@@](C)(CO)[C@@H]5[C@H](O)C[C@]43C)[C@H]12 [Madecassoside, reference compound] | No effect | No effect | No effect |  |  |  |  | 
2 | CC1(C)O[C@@H]2[C@@H](CO[C@@]3(COS(N)(=O)=O)OC(C)(C)O[C@@H]23)O1 [Topramax, reference compound] | No effect | No effect | No effect |  |  |  |  | 
3 | CNC(=O)[C@H](Cc1ccccc1)NC(=O)[C@H](CC(C)C)[C@H](CSc1cccs1)C(=O)NO [Batimastat, reference compound] |  |  |  | 100 | 100 | did not inhibit | No effect | 
4 | CN1C(C(=O)Nc2ccccn2)=C(O)c2ccccc2S1(=O)=O [Proxicam, reference compound] |  |  | No effect |  |  |  |  | No effect
5 | CC(C(=O)O)c1ccc(C(=O)c2ccccc2)s1 (centres unmarked) [Tiaprofenic Acid, reference compound] |  |  | No effect |  | 70 |  |  | 

Reference: US20090162351A1, “Transdiscal administration of inhibitors of p38 MAP kinase” (DePuy Spine, Inc., priority 2007, published 2009)
